Data taken from patent US6737383B1, “Herbicidal oxadiazolidines” (priority 1999, dated 2004).

What was measured:
rape = experiment: Test B pre/postemergence rape; assay type: in vivo, Brassica napus
Method in brief: (§1)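 Herbicidal effect was estimated by eye on a ten-point control scale after plants spent twelve to sixteen days in a greenhouse following soil or foliar treatment. Foliar sprays targeted plants at one to four leaves; all doses were formulated in a non-phytotoxic solvent with surfactant.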

blackgrass = experiment: Test B pre/postemergence blackgrass; assay type: in vivo, Alopecurus myosuroides
Method in brief: as §1

wheat = experiment: Test B pre/postemergence wheat; assay type: in vivo, Triticum aestivum
Method in brief: as §1

crabgrass = experiment: Test B pre/postemergence crabgrass; assay type: in vivo, Digitaria sanguinalis
Method in brief: as §1

giant foxtail = experiment: Test B pre/postemergence giant foxtail; assay type: in vivo, Setaria faberii
Method in brief: as §1

sugar beet = experiment: Test B pre/postemergence sugar beet; assay type: in vivo, Beta vulgaris
Method in brief: as §1

cocklebur = experiment: Test B pre/postemergence cocklebur; assay type: in vivo, Xanthium strumarium
Method in brief: as §1

surinam grass = experiment: Test B pre/postemergence surinam grass; assay type: in vivo, Brachiaria decumbens
Method in brief: as §1

purple nutsedge = experiment: Test B pre/postemergence purple nutsedge; assay type: in vivo, Cyperus rotundus
Method in brief: as §1

soybean = experiment: Test B pre/postemergence soybean; assay type: in vivo, Glycine max
Method in brief: as §1

corn = experiment: Test B pre/postemergence corn; assay type: in vivo, Zea mays
Method in brief: as §1

pigweed = experiment: Test B pre/postemergence pigweed; assay type: in vivo, Amaranthus retroflexus
Method in brief: as §1

[1] = Postemergence, Rate 125 g/ha, scale of 0 to 10 where 0 is no effect and 10 is complete control
[2] = Preemergence, Rate 62 g/ha, scale of 0 to 10 where 0 is no effect and 10 is complete control
[3] = Preemergence, Rate 125 g/ha, 0 is no effect, 10 is complete control
[4] = Preemergence, Rate 250 g/ha, scale 0 to 10, 0 is no effect, 10 is complete control
[5] = Preemergence, Rate 500 g/ha, scale 0 to 10 (0 no effect, 10 complete control)
[6] = Rate 62 g/ha, Postemergence, scale of 0 to 10 where 0 is no effect and 10 is complete control
[7] = Rate 250 g/ha, Postemergence, scale 0 to 10, 0 is no effect, 10 is complete control
[8] = Rate 500 g/ha, Postemergence, scale 0 to 10

CC(C)N(C(=O)n1oc(=O)n([C@@H](C)c2ccccc2)c1=O)c1ccc(F)cc1 [Compound 167]
2: Sugarbeets plant response rating (0 to 10 scale) (sugar beet; [3]) | Cocklebur plant response rating (cocklebur; [8]) | B. signalgrass plant response rating (surinam grass; [2]) | Soybean plant response rating (soybean; [6])
7: Crabgrass plant response rating (crabgrass; [2]) | Redroot pigweed plant response rating (pigweed; [8])
8: Crabgrass plant response rating (0 to 10 scale) (crabgrass; [3]) | Giant foxtail plant response rating (giant foxtail; [2]) | B. signalgrass plant response rating (surinam grass; [5]) | Redroot pigweed plant response rating (pigweed; [4]) | Redroot pigweed plant response rating (pigweed; [5])
6: Redroot pigweed plant response rating (0 to 10 scale) (pigweed; [3])
5: Rape plant response rating (rape; [5]) | Plant response rating, Blackgrass (blackgrass; [7]) | Blackgrass plant response rating (blackgrass; [8]) | Sugarbeets plant response rating (sugar beet; [4]) | Sugarbeets plant response rating (sugar beet; [5]) | B. signalgrass plant response rating (0 to 10 scale) (surinam grass; [3]) | B. signalgrass plant response rating (surinam grass; [4]) | Soybean plant response rating (soybean; [8])
3: Blackgrass plant response rating (blackgrass; [4]) | Blackgrass plant response rating (blackgrass; [5]) | Crabgrass plant response rating (crabgrass; [1]) | Soybean plant response rating (soybean; [1]) | Plant response rating, Soybean (soybean; [7]) | Plant response rating, Redroot pigweed (pigweed; [7])
10: Crabgrass plant response rating (crabgrass; [4]) | Crabgrass plant response rating (crabgrass; [5]) | Giant foxtail plant response rating (giant foxtail; [4]) | Giant foxtail plant response rating (giant foxtail; [5])
0: Rape plant response rating (rape; [1]) | Rape plant response rating (rape; [2]) | Rape plant response rating (0 to 10 scale) (rape; [3]) | Rape plant response rating (rape; [4]) | Rape plant response rating (rape; [6]) | Plant response rating, Rape (rape; [7]) | Rape plant response rating (rape; [8]) | Blackgrass plant response rating (blackgrass; [1]) | Blackgrass plant response rating (blackgrass; [2]) | Blackgrass plant response rating (0 to 10 scale) (blackgrass; [3]) | Blackgrass plant response rating (blackgrass; [6]) | Wheat plant response rating (wheat; [2]) | Wheat plant response rating (0 to 10 scale) (wheat; [3]) | Wheat plant response rating (wheat; [4]) | Wheat plant response rating (wheat; [5]) | Plant response rating, Wheat (wheat; [7]) | Wheat plant response rating (wheat; [8]) | Crabgrass plant response rating (crabgrass; [6]) | Giant foxtail plant response rating (giant foxtail; [1]) | Giant foxtail plant response rating (giant foxtail; [6]) | Plant response rating, Giant foxtail (giant foxtail; [7]) | Giant foxtail plant response rating (giant foxtail; [8]) | Sugarbeets plant response rating (sugar beet; [1]) | Sugarbeets plant response rating (sugar beet; [2]) | Sugarbeets plant response rating (sugar beet; [6]) | Plant response rating, Sugarbeets (sugar beet; [7]) | Sugarbeets plant response rating (sugar beet; [8]) | Cocklebur plant response rating (cocklebur; [1]) | Cocklebur plant response rating (cocklebur; [2]) | Cocklebur plant response rating (0 to 10 scale) (cocklebur; [3]) | Cocklebur plant response rating (cocklebur; [4]) | Cocklebur plant response rating (cocklebur; [5]) | Cocklebur plant response rating (cocklebur; [6]) | Plant response rating, Cocklebur (cocklebur; [7]) | B. signalgrass plant response rating (surinam grass; [1]) | B. signalgrass plant response rating (surinam grass; [6]) | Plant response rating, B. signalgrass (surinam grass; [7]) | B. signalgrass plant response rating (surinam grass; Rate 500 g/ha, Postemergence, scale 0 to 10, 0 no effect, 10 complete control) | Nutsedge plant response rating (purple nutsedge; [1]) | Nutsedge plant response rating (purple nutsedge; [2]) | Nutsedge plant response rating (0 to 10 scale) (purple nutsedge; [3]) | Nutsedge plant response rating (purple nutsedge; [4]) | Nutsedge plant response rating (purple nutsedge; [5]) | Nutsedge plant response rating (purple nutsedge; [6]) | Plant response rating, Nutsedge (purple nutsedge; [7]) | Nutsedge plant response rating (purple nutsedge; [8]) | Soybean plant response rating (soybean; [2]) | Soybean plant response rating (0 to 10 scale) (soybean; [3]) | Soybean plant response rating (soybean; [4]) | Soybean plant response rating (soybean; [5]) | Corn plant response rating (corn; [1]) | Corn plant response rating (corn; [2]) | Corn plant response rating (0 to 10 scale) (corn; [3]) | Corn plant response rating (corn; [4]) | Corn plant response rating (corn; [5]) | Corn plant response rating (corn; [6]) | Plant response rating, Corn (corn; [7]) | Corn plant response rating (corn; [8]) | Redroot pigweed plant response rating (pigweed; [1]) | Redroot pigweed plant response rating (pigweed; [2]) | Redroot pigweed plant response rating (pigweed; [6])
9: Plant response rating, Crabgrass (crabgrass; [7]) | Crabgrass plant response rating (crabgrass; [8]) | Giant foxtail plant response rating (0 to 10 scale) (giant foxtail; [3])
